From patent US9688710B2, “Inhibitors of sodium glucose cotransporter 1” (LEXICON PHARMACEUTICALS, INC., priority 2012, dated 2017)

Legend:
[1] = target: Human sodium/glucose co-transporter type 1 (SGLT1) (Homo sapiens (Human), UniProt P13866); test: In vitro human SGLT1 inhibition assay (14C-AMG uptake); format: cell-based; details: HEK293 cells expressing human HA-SGLT1, 14C-AMG uptake
Method in brief: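 Uptake of 14C-AMG (100 nCi) was measured by scintillation counting after 1–2 h at 37 °C, 5% CO2, with or without compound. The buffer was pH 7.3 with 140 mM NaCl, 1 mM CaCl2, 1 mM MgCl2 and 1 mg/mL BSA. Cells were a stable HEK293 line carrying HA-SGLT1 (human), plated overnight at 30,000 per well.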

[2] = target: Human sodium/glucose co-transporter type 2 (SGLT2) (Homo sapiens (Human), UniProt P31639); test: In vitro human SGLT2 inhibition assay (14C-AMG uptake); format: cell-based; details: HEK293 cells expressing human HA-SGLT2, 14C-AMG uptake
Method in brief: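 Uptake of 14C-AMG (100 nCi) was followed in a stable HEK293 HA-SGLT2 line over 1-2 h at 37 °C with or without compound. Buffer: 140 mM NaCl, 10 mM HEPES, 5 mM Tris, 1 mg/mL BSA, pH 7.3. Readout was scintillation counting after washing.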

Human sodium/glucose co-transporter type 2 (SGLT2), sequence (P31639 whole entry): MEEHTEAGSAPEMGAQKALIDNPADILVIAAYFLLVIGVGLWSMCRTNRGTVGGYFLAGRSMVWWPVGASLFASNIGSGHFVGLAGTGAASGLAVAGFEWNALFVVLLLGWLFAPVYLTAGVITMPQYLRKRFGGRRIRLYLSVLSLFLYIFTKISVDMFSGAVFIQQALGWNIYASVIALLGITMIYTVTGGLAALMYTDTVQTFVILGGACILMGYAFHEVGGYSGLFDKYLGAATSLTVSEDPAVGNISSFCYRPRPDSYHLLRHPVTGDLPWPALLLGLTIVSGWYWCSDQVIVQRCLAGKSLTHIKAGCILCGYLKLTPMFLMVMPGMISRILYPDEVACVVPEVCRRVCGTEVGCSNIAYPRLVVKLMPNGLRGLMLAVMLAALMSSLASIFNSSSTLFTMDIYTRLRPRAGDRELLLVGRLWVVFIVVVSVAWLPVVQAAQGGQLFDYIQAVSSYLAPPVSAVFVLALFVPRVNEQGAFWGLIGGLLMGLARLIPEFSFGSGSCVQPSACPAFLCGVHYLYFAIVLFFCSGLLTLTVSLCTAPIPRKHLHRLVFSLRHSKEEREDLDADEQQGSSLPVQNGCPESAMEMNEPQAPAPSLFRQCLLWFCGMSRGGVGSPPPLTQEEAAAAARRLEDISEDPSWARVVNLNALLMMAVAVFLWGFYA
Human sodium/glucose co-transporter type 1 (SGLT1), sequence (P13866 whole entry): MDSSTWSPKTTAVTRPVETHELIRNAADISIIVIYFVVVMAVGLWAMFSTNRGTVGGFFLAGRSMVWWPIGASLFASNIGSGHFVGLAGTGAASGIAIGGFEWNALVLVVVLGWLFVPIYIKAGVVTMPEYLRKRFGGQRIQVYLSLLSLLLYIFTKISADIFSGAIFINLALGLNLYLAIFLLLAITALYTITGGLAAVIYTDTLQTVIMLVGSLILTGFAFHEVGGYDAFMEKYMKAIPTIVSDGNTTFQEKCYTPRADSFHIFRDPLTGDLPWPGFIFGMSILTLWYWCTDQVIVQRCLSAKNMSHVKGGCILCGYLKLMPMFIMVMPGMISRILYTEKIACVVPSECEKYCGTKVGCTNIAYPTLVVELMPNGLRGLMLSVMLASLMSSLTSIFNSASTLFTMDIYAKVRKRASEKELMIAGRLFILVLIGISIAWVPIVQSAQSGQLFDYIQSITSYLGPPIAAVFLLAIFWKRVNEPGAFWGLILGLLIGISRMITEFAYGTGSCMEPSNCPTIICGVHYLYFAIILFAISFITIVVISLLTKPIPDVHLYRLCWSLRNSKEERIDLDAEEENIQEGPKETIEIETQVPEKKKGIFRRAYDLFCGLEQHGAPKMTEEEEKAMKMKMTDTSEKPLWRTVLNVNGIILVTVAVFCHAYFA

Row | IC50 [1] | IC50 [2] | Structure (SMILES)
1 | < 0.1 µM | < 0.01 µM | CS[C@H]1O[C@@H](c2ccc(Cl)c(Cc3ccc(OCCCC[C@H](N)C(=O)O)cc3)c2)[C@H](O)[C@@H](O)[C@@H]1O [(S)-2-amino-6-(4-(2-chloro-5-((2S,3R,4R,5S,6R)-3,4,5-trihydroxy-6-(methylthio)tetrahydro-2H-pyran-2-yl)benzyl)phenoxy)hexanoic acid]
2 | < 0.01 µM | < 0.01 µM | CCC(=O)NCCCCc1ccc(Cc2cc([C@@H]3O[C@H](SC)[C@@H](O)[C@H](O)[C@H]3O)ccc2C)cc1 [N-(4-(4-(2-methyl-5-((2S,3R,4R,5S,6R)-3,4,5-trihydroxy-6-(methylthio)tetrahydro-2H-pyran-2-yl)benzyl)phenyl)butyl)propionamide]
3 | < 0.01 µM | < 0.01 µM | CS[C@H]1O[C@@H](c2ccc(C)c(Cc3ccc(CCCC(=O)NC4(C(=O)N5CCN(C)CC5)CCCC4)cc3)c2)[C@H](O)[C@@H](O)[C@@H]1O [4-(4-(2-methyl-5-((2S,3R,4R,5S,6R)-3,4,5-trihydroxy-6-(methylthio)tetrahydro-2H-pyran-2-yl)benzyl)phenyl)-N-(1-(4-methylpiperazine-1-carbonyl)cyclopentyl)butanamide]
4 | < 0.1 µM | < 0.01 µM | CS[C@H]1O[C@@H](c2ccc(C)c(Cc3ccc(CCCCCCC(=O)NC(C)(C)C(N)=O)cc3)c2)[C@H](O)[C@@H](O)[C@@H]1O [N-(1-amino-2-methyl-1-oxopropan-2-yl)-7-(4-(2-methyl-5-((2S,3R,4R,5S,6R)-3,4,5-trihydroxy-6-(methylthio)tetrahydro-2H-pyran-2-yl)benzyl)phenyl)heptanamide]
5 | < 0.01 µM | < 0.01 µM | CS[C@H]1O[C@@H](c2ccc(C)c(Cc3ccc(CCCC(=O)NCC(C)(C)N)cc3)c2)[C@H](O)[C@@H](O)[C@@H]1O [N-(2-amino-2-methylpropyl)-4-(4-(2-methyl-5-((2S,3R,4R,5S,6R)-3,4,5-trihydroxy-6-(methylthio)tetrahydro-2H-pyran-2-yl)benzyl)phenyl)butanamide]
6 | < 0.01 µM | < 0.01 µM | CS[C@H]1O[C@@H](c2ccc(C)c(Cc3ccc(CCCC(=O)NC(C)(C)C(=O)NC4CCN(C)CC4)cc3)c2)[C@H](O)[C@@H](O)[C@@H]1O [N-(2-methyl-1-((1-methylpiperidin-4-yl)amino)-1-oxopropan-2-yl)-4-(4-(2-methyl-5-((2S,3R,4R,5S,6R)-3,4,5-trihydroxy-6-(methylthio)tetrahydro-2H-pyran-2-yl)benzyl)phenyl)butanamide]
7 | < 0.01 µM | < 0.01 µM | CS[C@H]1O[C@@H](c2ccc(C)c(Cc3ccc(OCCCC(=O)N[C@H](C)C(N)=O)cc3)c2)[C@H](O)[C@@H](O)[C@@H]1O [N-((R)-1-amino-1-oxopropan-2-yl)-4-(4-(2-methyl-5-((2S,3R,4R,5S,6R)-3,4,5-trihydroxy-6-(methylthio)tetrahydro-2H-pyran-2-yl)benzyl)phenoxy)butanamide]
8 | < 0.01 µM | < 0.01 µM | CCNC(=O)CCCOc1ccc(Cc2cc([C@@H]3O[C@H](SC)[C@@H](O)[C@H](O)[C@H]3O)ccc2C)cc1 [N-ethyl-4-(4-(2-methyl-5-((2S,3R,4R,5S,6R)-3,4,5-trihydroxy-6-(methylthio)tetrahydro-2H-pyran-2-yl)benzyl)phenoxy)butanamide]
9 | < 0.01 µM | < 0.01 µM | CS[C@H]1O[C@@H](c2ccc(C)c(Cc3ccc(OCCCC(=O)NC(C)(C)C(=O)O)cc3)c2)[C@H](O)[C@@H](O)[C@@H]1O [2-methyl-2-(4-(4-(2-methyl-5-((2S,3R,4R,5S,6R)-3,4,5-trihydroxy-6-(methylthio)tetrahydro-2H-pyran-2-yl)benzyl)phenoxy)butanamido)propanoic acid]
10 | < 0.01 µM | < 0.01 µM | CS[C@H]1O[C@@H](c2ccc(Cl)c(Cc3ccc(OCCNC(=O)C(C)(C)CO)cc3)c2)[C@H](O)[C@@H](O)[C@@H]1O [N-(2-(4-(2-chloro-5-((2S,3R,4R,5S,6R)-3,4,5-trihydroxy-6-(methylthio)tetrahydro-2H-pyran-2-yl)benzyl)phenoxy)ethyl)-3-hydroxy-2,2-dimethylpropanamide]
11 | < 0.1 µM | < 0.01 µM | CS[C@H]1O[C@@H](c2ccc(C)c(Cc3ccc(/C=C/C(=O)N4CCN(C)CC4)cc3)c2)[C@H](O)[C@@H](O)[C@@H]1O [(E)-3-(4-(2-methyl-5-((2S,3R,4R,5S,6R)-3,4,5-trihydroxy-6-(methylthio)tetrahydro-2H-pyran-2-yl)benzyl)phenyl)-1-(4-methylpiperazin-1-yl)prop-2-en-1-one]
12 | < 0.1 µM | < 0.01 µM | CS[C@H]1O[C@@H](c2ccc(C)c(Cc3ccc(CCCCCC(=O)NC(C)(C)C(N)=O)cc3)c2)[C@H](O)[C@@H](O)[C@@H]1O [N-(1-amino-2-methyl-1-oxopropan-2-yl)-6-(4-(2-methyl-5-((2S,3R,4R,5S,6R)-3,4,5-trihydroxy-6-(methylthio)tetrahydro-2H-pyran-2-yl)benzyl)phenyl)hexanamide]
13 | < 0.01 µM | < 0.01 µM | CCN(CC)CCCCc1ccc(Cc2cc([C@@H]3O[C@H](SC)[C@@H](O)[C@H](O)[C@H]3O)ccc2C)cc1 [(2S,3R,4R,5S,6R)-2-(3-(4-(4-(diethylamino)butyl)benzyl)-4-methylphenyl)-6-(methylthio)tetrahydro-2H-pyran-3,4,5-triol]
14 | < 0.01 µM | < 0.01 µM | CS[C@H]1O[C@@H](c2ccc(C)c(Cc3ccc(OCCCC(=O)NC(CO)CO)cc3)c2)[C@H](O)[C@@H](O)[C@@H]1O [N-(1,3-dihydroxypropan-2-yl)-4-(4-(2-methyl-5-((2S,3R,4R,5S,6R)-3,4,5-trihydroxy-6-(methylthio)tetrahydro-2H-pyran-2-yl)benzyl)phenoxy)butanamide]
15 | < 0.1 µM | < 0.01 µM | CS[C@H]1O[C@@H](c2ccc(Cl)c(Cc3ccc(OCCNC(=O)OC(C)(C)C)cc3)c2)[C@H](O)[C@@H](O)[C@@H]1O [tert-butyl (2-(4-(2-chloro-5-((2S,3R,4R,5S,6R)-3,4,5-trihydroxy-6-(methylthio)tetrahydro-2H-pyran-2-yl)benzyl)phenoxy)ethyl)carbamate]
16 | < 0.1 µM | < 0.01 µM | CS[C@H]1O[C@@H](c2ccc(C)c(Cc3ccc(CCCC(=O)NCC(C)(C)C(=O)NC4CCNCC4)cc3)c2)[C@H](O)[C@@H](O)[C@@H]1O [N-(2,2-dimethyl-3-oxo-3-(piperidin-4-ylamino)propyl)-4-(4-(2-methyl-5-((2S,3R,4R,5S,6R)-3,4,5-trihydroxy-6-(methylthio)tetrahydro-2H-pyran-2-yl)benzyl)phenyl)butanamide]
17 | < 0.01 µM | < 0.01 µM | CS[C@H]1O[C@@H](c2ccc(C)c(Cc3ccc(CCCC(=O)NC(C)(C)C(=O)N4CCOCC4)cc3)c2)[C@H](O)[C@@H](O)[C@@H]1O [N-(2-methyl-1-morpholino-1-oxopropan-2-yl)-4-(4-(2-methyl-5-((2S,3R,4R,5S,6R)-3,4,5-trihydroxy-6-(methylthio)tetrahydro-2H-pyran-2-yl)benzyl)phenyl)butanamide]
18 | < 0.01 µM | < 0.01 µM | CS[C@H]1O[C@@H](c2ccc(C)c(Cc3ccc(OCCCC(=O)NC(C)(C)C(=O)N4CCC(C)CC4)cc3)c2)[C@H](O)[C@@H](O)[C@@H]1O [N-(2-methyl-1-(4-methylpiperidin-1-yl)-1-oxopropan-2-yl)-4-(4-(2-methyl-5-((2S,3R,4R,5S,6R)-3,4,5-trihydroxy-6-(methylthio)tetrahydro-2H-pyran-2-yl)benzyl)phenoxy)butanamide]
